From paper PMC6583776 (Journal of the American Chemical Society, 2019)

Tests used:
[1] = tested on: HCV (HCVcc-Luc) infection of Huh7.5.1 cells; assay: HCV infection inhibition assay; format: cell-based; conditions: relative to aglaroxin C (6)
Huh7.5.1 cells = assay: Cytotoxicity, CellTiter-Glo Cell Viability Luminescent Assay; format: cell-based
[2] = tested on: cap-dependent translation (Firefly luciferase); format: biochemical; conditions: 1 μM compound, Krebs-2 extracts, relative to DMSO
[3] = tested on: HCV IRES-dependent translation (Renilla luciferase); format: biochemical; conditions: 1 μM compound, Krebs-2 extracts, relative to DMSO
HCV = format: cell-based; conditions: time-of-addition; racemic compounds
translation = conditions: ref 9p; cited from earlier work
[4] = tested on: Dengue virus (serotype 2, Thailand 16681 strain); format: cell-based; conditions: Huh7.5.1 cells, MOI 0.1, 2 μM compound for 3 h, RNA 48 h post-infection
[5] = tested on: hepatitis C viral (HCV) entry; conditions: at a low μM concentration; cited from earlier work

Compound	translation inhibition of firefly luciferase (cap-dependent) [2]	inhibition of HCV mRNA (IRES-dependent) translation [3]	anti-HCV activity, compound added 3 h after infection was initiated (HCV)	anti-HCV activity, compound added together with the virus (HCV)	translation inhibition (in words) (translation)	further results
COc1ccc([C@@]23Oc4cc(OC)cc(OC)c4[C@]2(O)c2nc(-c4cccc(OC)c4)[nH]c(=O)c2[C@H]3c2ccccc2)cc1 [12s]	minimal	not inhibited	partially lost their activity	maximal anti-HCV activity	–	inhibition of HCV infection in comparison to 6 (fold) [1]: three-fold greater inhibition; cell death at 200 μM (Huh7.5.1 cells): less than 50%; cell death reached (Huh7.5.1 cells): < 50%; maximum cytotoxicity plateau, cell death (Huh7.5.1 cells): 35%
CONC(=O)[C@H]1[C@@H](O)[C@@]2(O)c3c(OC)cc(OC)cc3O[C@@]2(c2ccc(OC)cc2)[C@@H]1c1ccccc1 [CR-1–31-B]	strong inhibition	–	–	–	–	–
COc1ccc([C@@]23Oc4cc(OC)cc(OC)c4[C@]2(O)C2=C(C(=O)N4CCC[C@H]4N2)[C@H]3c2ccccc2)cc1 [compound 5, aglaiastatin]	–	–	–	–	promising translation inhibitor	–
COc1ccc([C@@]23Oc4cc(OC)cc(OC)c4[C@]2(O)[C@H](O)[C@H](C(=O)N(C)C)[C@H]3c2ccccc2)cc1 [rocaglamide]	–	–	–	–	–	inhibition of Dengue virus infection [4]: inhibited
aglaroxin C [compound 6]	minimal	not inhibited	partially lost their activity	maximal anti-HCV activity	only moderate translation inhibition	inhibition of HCV entry into host cells [5]: inhibited
